molecular target: T1, human type 1 glycine transporter (GlyT1) (Homo sapiens, UniProt P48067); assay: Glycine uptake inhibition experiment ([3H]glycine uptake); format: cell-based; settings: GlyT1
T1 construct: T98G cells (glioma cells) expressing human type 1 glycine transporter (GlyT1) were used
T1 sequence (P48067 1-706): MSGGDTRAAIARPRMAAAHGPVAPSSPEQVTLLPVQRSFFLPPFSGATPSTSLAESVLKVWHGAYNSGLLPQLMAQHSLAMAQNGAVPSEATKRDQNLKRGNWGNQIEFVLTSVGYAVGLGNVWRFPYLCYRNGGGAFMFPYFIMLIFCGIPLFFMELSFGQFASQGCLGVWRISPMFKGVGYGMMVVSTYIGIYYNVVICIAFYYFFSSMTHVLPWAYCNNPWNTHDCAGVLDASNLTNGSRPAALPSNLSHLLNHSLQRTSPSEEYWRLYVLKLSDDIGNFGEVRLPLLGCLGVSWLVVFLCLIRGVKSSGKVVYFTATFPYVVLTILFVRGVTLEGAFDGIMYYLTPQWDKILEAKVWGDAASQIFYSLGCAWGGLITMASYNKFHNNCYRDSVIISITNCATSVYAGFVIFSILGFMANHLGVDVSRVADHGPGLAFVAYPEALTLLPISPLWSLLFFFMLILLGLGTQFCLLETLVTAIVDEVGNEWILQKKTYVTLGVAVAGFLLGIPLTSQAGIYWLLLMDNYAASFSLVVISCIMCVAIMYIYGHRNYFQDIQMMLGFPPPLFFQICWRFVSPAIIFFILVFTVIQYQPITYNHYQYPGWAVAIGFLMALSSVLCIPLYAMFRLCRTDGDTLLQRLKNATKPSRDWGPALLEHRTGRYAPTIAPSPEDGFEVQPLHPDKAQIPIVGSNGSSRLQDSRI
Protocol: Glycine Uptake Inhibition Experiment
A glycine uptake experiment was conducted in accordance with the method published in Neuron, 8, 927-935, 1992. In the experiment, T98G cells (glioma cells) expressing human type 1 glycine transporter (GlyT1) were used. The T98G cells were seeded in a 96-well plate at 2.0×10^4 cells/well and cultured overnight in a CO2 incubator. The test substance was dissolved in a 100% DMSO solution and then dissolved in a 10 mM HEPES buffer solution (pH 7.4) containing 150 mM sodium chloride, 1 mM calcium chloride, 5 mM potassium chloride, 1 mM magnesium chloride, 10 mM glucose and 0.2% bovine serum albumin. After removing the cell culture medium, the test substance was subjected to a 10-min pretreatment. Subsequently, the test substance and [^3H] glycine (final concentration: 250 nM) were added to the cells and reaction was performed at room temperature for 15 minutes. After the end of the reaction, the extracellular fluid was aspirated with a manifold to remove excess labeled glycine present outside the cells, and then the cells were lysed with a 0.5 M aqueous sodium hydroxide solution. The glycine content in the cells was determined by measuring the radioactivity in the cell lysate with a liquid scintillation counter. Glycine uptake in the presence of 10 μM ALX5407 was defined as non-specific uptake, and the value calculated by subtracting the amount of the non-specific uptake from the total uptake in the absence of 10 μM ALX5407 was defined as specific uptake. In addition, glycine uptake inhibitory activity (IC50 value) was calculated from an inhibition curve at the concentrations of each test substance ranging from 10^−9 to 10^−5 M. It should be noted that ALX5407 is an HCl salt of N-[(3R)-3-([1,1′-biphenyl]-4-yloxy)-3-(4-fluorophenyl)propyl]-N-methylglycine.

Compound | IC50 [nM]
3,4-dichloro-N-[(2-chloro-3-fluorophenyl)(cis-4-fluoro-1-hydroxycyclohexyl)methyl]benzamide [Compound 252] | 4700
CCn1cc(-c2cccc(C(NC(=O)c3nccc(C(F)(F)F)c3Cl)C3(O)CCCC3)c2)cn1 (single isomer, unassigned) [Compound 13, 3-chloro-N-{[3-(1-ethyl-1H-pyrazol-4-yl)phenyl](1-hydroxycyclopentyl)methyl}-4-(trilfuoromethyl)pyridine-2-carboxamide] | 830
CCn1cc(-c2cccc(C(NC(=O)c3nccc(C(F)(F)F)c3Cl)C3(O)CCCC3)c2)cn1 (single isomer, unassigned) [Compound 14, 3-chloro-N-{[3-(1-ethyl-1H-pyraozl-4-yl)phenyl](1-hydroxycyclopentyl)methyl}-4-(trifluoromethyl)pyridine-2-carboxamide] | 13
O=C(NC(c1cccc(-c2cccnc2)c1)C1(O)CCCC1)c1nccc(C(F)(F)F)c1Cl (single isomer, unassigned) [Compound 24, 3-chloro-N-{(1-hydroxycyclopentyl)[3-(pyridin-3-yl)phenyl]methyl}-4-(trifluoromethyl)pyridine-2-carboxamide] | 2000
O=C(NC(c1cccc(-c2cccnc2)c1)C1(O)CCCC1)c1nccc(C(F)(F)F)c1Cl (single isomer, unassigned) [Compound 25, 3-chloro-N-{(1-hydroxycylcopentyl)[3-(pyridin-3-yl)phenyl]methyl}-4-(trifluoromethyl)pyridine-2-carboxamide] | 69
O=C(NC(c1cccc(-c2cccnc2)c1)C1(O)CCCCC1)c1nccc(C(F)(F)F)c1Cl (single isomer, unassigned) [Compound 27, 3-chloro-N-{(1-hydroxycyclohexyl)[3-(pyridin-3-yl)phenyl]methyl}-4-(trifluoromethyl)pyridine-2-carboxamide] | 740
O=C(NC(c1cccc(-c2cccnc2)c1)C1(O)CCCCC1)c1nccc(C(F)(F)F)c1Cl (single isomer, unassigned) [Compound 28, 3-chloro-N-{(1-hydroxycyclohexyl)[3-(pyridin-3-yl)phenyl]methyl}-4-(trifluoromethyl)pyridine-2-carboxamide] | 20
O=C(NC(c1cccc(Br)c1)C1(O)CCCCC1)c1nccc(C(F)(F)F)c1Cl (single isomer, unassigned) [Compound 42, N-[(3-bromophenyl)(1-hydroxycyclohexyl)methyl]-3-chloro-4-(trilfuoromethyl)pyridine-2-carboxamide] | 38
O=C(NC(c1cccc(Br)c1)C1(O)CCCCC1)c1nccc(C(F)(F)F)c1Cl (single isomer, unassigned) [Compound 43, N-[(3-bromophenyl)(1-hydroxycyclohexyl)methyl]-3-chloro-4-(trifluoromethyl)pyridine-2-carboxamide] | 1400
O=C(NC(c1cccc(F)c1)C1(O)CCCC1)c1nccc(C(F)(F)F)c1Cl (single isomer, unassigned) [Compound 52, 3-chloro-N-[(3-fluorophenyl)(1-hydroxycyclopentyl)methyl]-4-(trifluoromethyl)pyridine-2-carboxamide] | 100
O=C(NC(c1cccc(F)c1)C1(O)CCCC1)c1nccc(C(F)(F)F)c1Cl (single isomer, unassigned) [Compound 53, 3-chloro-N-[(3-fluorophenyl)(1-hydroxycyclopentyl)methyl]-4-(trifluoromethyl)pyridine-2-carboxamide] | 1500
O=C(NC(c1cccc(Cl)c1)C1(O)CCCC1)c1nccc(C(F)(F)F)c1Cl (single isomer, unassigned) [Compound 54, 3-chloro-N-[(3-chlorophenyl)(1-hydroxycyclopentyl)methyl]-4-(trifluoromethyl)pyridine-2-carboxamide] | 57
O=C(NC(c1cccc(Cl)c1)C1(O)CCCC1)c1nccc(C(F)(F)F)c1Cl (single isomer, unassigned) [Compound 55, 3-chloro-N-[(3-chlorophenyl)(1-hydroxycyclopentyl)methyl]-4-(trifluoromethyl)pyridine-2-carboxamide] | 8000
Cc1cccc(C(NC(=O)c2nccc(C(F)(F)F)c2Cl)C2(O)CCCC2)c1 (single isomer, unassigned) [Compound 56, 3-chloro-N-[(1-hydroxycyclopentyl)(3-methylphenyl)methyl]-4-(trifluoromethyl)pyridine-2-carboxamide] | 240
COc1cccc(C(NC(=O)c2nccc(C(F)(F)F)c2Cl)C2(O)CCCC2)c1 (single isomer, unassigned) [Compound 57, 3-chloro-N-[(1-hydroxycyclopentyl)(3-methoxyphenyl)methyl]-4-(trifluoromethyl)pyridine-2-carboxamide] | 150
O=C(NC(c1ccc(F)cc1)C1(O)CCCC1)c1nccc(C(F)(F)F)c1Cl (single isomer, unassigned) [Compound 58, 3-chloro-N-[(4-fluorophenyl)(1-hydroxycyclopentyl)methyl]-4-(trifluoromethyl)pyridine-2-carboxamide] | 760
O=C(NC(c1ccc(F)cc1)C1(O)CCCC1)c1nccc(C(F)(F)F)c1Cl (single isomer, unassigned) [Compound 59, 3-chloro-N-[(4-fluorophenyl)(1-hydroxycyclopentyl)methyl]-4-(trifluoromethyl)pyridine-2-carboxamide] | 9500
O=C(NC(c1ccccc1F)C1(O)CCCC1)c1nccc(C(F)(F)F)c1Cl (single isomer, unassigned) [Compound 60, 3-chloro-N-[(2-fluorophenyl)(1-hydroxycyclopentyl)methyl]-4-(trifluoromethyl)pyridine-2-carboxamide] | 200
O=C(NC(c1ccccc1F)C1(O)CCCC1)c1nccc(C(F)(F)F)c1Cl (single isomer, unassigned) [Compound 61, 3-chloro-N-[(2-fluorophenyl)(1-hydroxycyclopentyl)methyl]-4-(trifluoromethyl)pyridine-2-carboxamide] | 3000
O=C(NC(c1cccc(F)c1)C1(O)CCC1)c1nccc(C(F)(F)F)c1Cl (single isomer, unassigned) [Compound 66, 3-chloro-N-[(3-fluorophenyl)(1-hydroxycyclobutyl)methyl]-4-(trifluoromethyl)pyridine-2-carboxamide] | 690
O=C(NC(c1cccc(F)c1)C1(O)CCCCC1)c1nccc(C(F)(F)F)c1Cl (single isomer, unassigned) [Compound 67, 3-chloro-N-[(3-fluorophenyl)(1-hydroxycyclohexyl)methyl]-4-(trifluoromethyl)pyridine-2-carboxamide] | 29
O=C(NC(c1cccc(F)c1)C1(O)CCCCC1)c1nccc(C(F)(F)F)c1Cl (single isomer, unassigned) [Compound 68, 3-chloro-N-[(3-fluorophenyl)(1-hydroxycyclohexyl)methyl]-4-(trifluoromethyl)pyridine-2-carboxamide] | 2600
O=C(NC(c1cccc(F)c1)C1(O)CCCC1)c1cccc(C(F)(F)F)c1Cl (single isomer, unassigned) [Compound 72, 2-chloro-N-[(3-fluorophenyl)(1-hydroxycyclopentyl)methyl]-3-(trifluoromethyl)benzamide] | 7100
O=C(NC(c1cccc(F)c1)C1(O)CCCC1)c1cccc(C(F)(F)F)c1Cl (single isomer, unassigned) [Compound 73, 2-chloro-N-[(3-fluorophenyl)(1-hydroxycyclopentyl)methyl]-3-(trifluoromethyl)benzamide] | 220
O=C(NC(c1cccc(F)c1)C1(O)CCC(F)(F)CC1)c1nccc(C(F)(F)F)c1Cl (single isomer, unassigned) [Compound 76, 3-chloro-N-[(4,4-difluoro-1-hydroxycyclohexyl)(3-fluorophenyl)methyl]-4-(trifluoromethyl)pyridine-2-carboxamide] | 250

— US20160130278A1 (TAISHO PHARMACEUTICAL CO., LTD, priority 2013, published 2016)
